Here are results for one molecule from EP0291751A2, “Pharmaceutical mixture preparation” (Wilhelm, Gerhard, Dr., priority 1987, dated 1988).

In the assay the test system is Symptome des Heuschnupfens. The settings on record: alone or together, without Hydroxiphenylalkanolamin.

As to `Cc1ncc(C[n+]2csc(CCO)c2C)c(N)n1` [Vitamin B₁], the “die Symptome des Heuschnupfens lindernde Wirkung” value is “weder alleine noch gemeinsam miteinander”.
